Results: ChEMBL document CHEMBL5252638, “Novel triphenylphosphonium amphiphilic conjugates of glycerolipid type: synthesis, cytotoxic and antibacterial activity, and targeted cancer cell delivery” (RSC Med Chem, 2023)
≈ marks a conversion by molar mass, not a printed value.

How the values were obtained:
[1] = Cytotoxicity against human WI-38 cells assessed as number of viable cells measured after 48 hrs by MTT based colorimetric assay; format: toxicity, cell-based
[2] = system: HepG2; assay: Cytotoxicity against human HepG2 cells assessed as number of viable cells measured after 48 hrs by MTT based colorimetric assay; format: functional, cell-based; conditions: HepG2, 48 h
[3] = system: A549; assay: Cytotoxicity against human A549 cells assessed as number of viable cells measured after 48 hrs by MTT based colorimetric assay; format: functional, cell-based; conditions: A549, 48 h
[4] = system: T98G; assay: Cytotoxicity against human T98G cells assessed as number of viable cells measured after 48 hrs by MTT based colorimetric assay; format: functional, cell-based
[5] = system: SK-OV-3; assay: Cytotoxicity against human SK-OV-3 cells assessed as number of viable cells measured after 48 hrs by MTT based colorimetric assay; format: functional, cell-based; conditions: SK-OV-3, 48 h
[6] = Cytotoxicity against human Chang liver cells assessed as number of viable cells measured after 48 hrs by MTT based colorimetric assay; format: toxicity, cell-based
[7] = system: M-HeLa; assay: Cytotoxicity against human HelaM cells assessed as number of viable cells measured after 48 hrs by MTT based colorimetric assay; format: functional, cell-based
[8] = system: DU-145; assay: Cytotoxicity against human DU-145 cells assessed as number of viable cells measured after 48 hrs by MTT based colorimetric assay; format: functional, cell-based; conditions: DU-145, 48 h
[9] = system: PANC-1; assay: Cytotoxicity against human PANC-1 cells assessed as number of viable cells measured after 48 hrs by MTT based colorimetric assay; format: functional, cell-based; conditions: PANC-1, 48 h
[10] = system: MCF7; assay: Cytotoxicity against human MCF7 cells assessed as number of viable cells measured after 48 hrs by MTT based colorimetric assay; format: functional, cell-based; conditions: MCF7, 48 h
[11] = system: HuTu80; assay: Cytotoxicity against human HuTu80 cells assessed as number of viable cells measured after 48 hrs by MTT based colorimetric assay; format: functional, cell-based; conditions: HuTu80, 48 h
[12] = system: Bacillus cereus; assay: Bactericidal activity against Bacillus cereus ATCC 10702 NCTC 8035 by serial microdilution method; format: functional
[13] = system: Staphylococcus aureus; assay: Antimicrobial activity against Staphylococcus aureus ATCC 6538 P FDA 209P by serial microdilution method; format: functional
[14] = system: Enterococcus faecalis; assay: Antimicrobial activity against Enterococcus faecalis ATCC 29212 by serial microdilution method; format: functional
[15] = system: Pseudomonas aeruginosa; assay: Antimicrobial activity against Pseudomonas aeruginosa ATCC 9027 by serial microdilution method; format: functional
[16] = system: Enterococcus faecalis; assay: Bactericidal activity against Enterococcus faecalis ATCC 29212 by serial microdilution method; format: functional
[17] = system: Staphylococcus aureus; assay: Bactericidal against Staphylococcus aureus ATCC 6538 P FDA 209P by serial microdilution method; format: functional
[18] = system: Escherichia coli; assay: Antimicrobial activity against Escherichia coli ATCC 25922 by serial microdilution method; format: functional
[19] = system: Bacillus cereus; assay: Antimicrobial activity against Bacillus cereus ATCC 10702 NCTC 8035 by serial microdilution method; format: functional
[20] = system: Escherichia coli; assay: Bactericidal activity against Escherichia coli ATCC 25922 by serial microdilution method; format: functional
[21] = system: Pseudomonas aeruginosa; assay: Bactericidal against Pseudomonas aeruginosa ATCC 9027 by serial microdilution method; format: functional
[22] = species: Homo sapiens; assay: Selectivity index, ratio of IC50 for human WI-38 cells to IC50 for human HuTu80 cells
[23] = species: Homo sapiens; assay: Selectivity index, ratio of IC50 for human Chang liver cells to IC50 for human DU-145 cells
[24] = system: PC-3; assay: Cytotoxicity against human PC-3 cells assessed as number of viable cells measured after 48 hrs by MTT based colorimetric assay; format: functional, cell-based; conditions: PC-3, 48 h
[25] = Selectivity index, ratio of IC50 for human WI-38 cells to IC50 for human MCF7 cells; format: toxicity; conditions: WI-38 cells and MCF7 cells, read-out: Ratio IC50
[26] = species: Homo sapiens; assay: Selectivity index, ratio of IC50 for human WI-38 cells to IC50 for human HelaM cells
[27] = species: Homo sapiens; assay: Selectivity index, ratio of IC50 for human WI-38 cells to IC50 for human PANC-1 cells
[28] = Selectivity index, ratio of IC50 for human WI-38 cells to IC50 for human PC-3 cells; format: toxicity; conditions: WI-38 cells and PC-3 cells, read-out: Ratio IC50
[29] = species: Homo sapiens; assay: Selectivity index, ratio of IC50 for human WI-38 cells to IC50 for human SK-OV-3 cells

Row | Compound | IC50 at 48 h [1] | IC50 [2] | IC50 [3] | IC50 [4] | IC50 [5] | IC50 at 48 h [6] | IC50 [7] | IC50 [8] | IC50 [9] | IC50 [10] | IC50 [11] | MIC [13] | MBC [16] | MBC [17] | MIC [18] | MIC [19] | MBC [20] | further results
1 | COc1cccc2c1C(=O)c1c(O)c3c(c(O)c1C2=O)C[C@@](O)(C(=O)CO)C[C@@H]3O[C@H]1C[C@H](N)[C@H](O)[C@H](C)O1 [DOXORUBICIN] | 0.4 µM | 0.2 µM | 0.7 µM | 1 µM | 6.7 µM | 0.5 µM | 2.1 µM | 0.3 µM | 2.2 µM | 0.4 µM | 200 nM | – | – | – | – | – | – | –
2 | CCn1cc(C(=O)O)c(=O)c2cc(F)c(N3CCNCC3)cc21 [NORFLOXACIN] | – | – | – | – | – | – | – | – | – | – | – | 7.5 µM (≈ 2.4 µg/mL) | 24.4 µM (≈ 7.79 µg/mL) | 7.5 µM (≈ 2.4 µg/mL) | 4.7 µM (≈ 1.5 µg/mL) | 24.4 µM (≈ 7.79 µg/mL) | 24.4 µM (≈ 7.79 µg/mL) | MBC [12]: 24.4 µM (≈ 7.79 µg/mL); MIC [14]: 24.4 µM (≈ 7.79 µg/mL); MIC [15]: 12.1 µM (≈ 3.86 µg/mL); MBC [21]: 49 µM (≈ 15.6 µg/mL)
3 | CCCCC/C=C\C/C=C\CCCCCCCC(=O)OC(COC(=O)CCCCCCC/C=C\CCCCCCCC)COC(=O)CCCC[P+](c1ccccc1)(c1ccccc1)c1ccccc1 (stereo unspecified) | 40 µM | 58.2 µM | 54.4 µM | 73.8 µM | 21 µM | 36 µM | 32.1 µM | 19.2 µM | 33.5 µM | 25.4 µM | 3700 nM | 7.5 µM | 30 µM | 7.5 µM | 30 µM | 7.5 µM | 30 µM | Ratio IC50 [22]: 10.8; Ratio IC50 [23]: 1.9; IC50 [24]: 27.8 µM; selectivity ratio [25]: 1.6; Ratio IC50 [26]: 1.2; Ratio IC50 [27]: 1.2; selectivity ratio [28]: 1.4; Ratio IC50 [29]: 1.9
